Test results: patent publication US20240140958A1, “FUSED QUADRACYCLIC COMPOUNDS, COMPOSITIONS AND USES THEREOF” (Tabomedex Biosciences, Inc., priority 2021, published 2024)

Columns and labels:
[1] = target: T1, MAPKAPK2 Recombinant Human Protein (Homo sapiens, UniProt P49137); test: MK2 kinase assay (Z'-LYTE kinase assay kit); conditions: inhibition of MK2 biochemical activity; 90 min incubation at room temperature
T1 construct: purchased ThermoFisher pv3317
Description: Materials and Reagents for Measuring Inhibition of MK2 Biochemical Activity: • 1) Assay plate: 384 Well Low Volume Black Round Bottom Polystyrene NBS Microplate (Corning, Cat.No. 4514) • 2) MK2 kinase assay kit: Z' LYTE KINASE ASSAY KIT (ThermoFisher, Cat.No. pv3177) • 3) MAPKAPK2 Recombinant Human Protein (ThermoFisher, Cat.No. pv3317) • 4) DMSO (Vetec, Cat.No. V900090) • 5) DTT (Sigma, Cat.No. D0632)
MK2 Kinase Assay Procedure: • 1) Dispense 5 μl Kinase/Peptide Mixture to each wells of 384-well plate • 2) Add 2.5 μl 4× Test Compound to each well • 3) Add 2.5 μl 4× ATP Solution to each well • 4) After 90 minutes incubation at room temperature, add 5 μl Development Solution to each well • 5) After 60 minutes incubation at room temperature, add 5 μl stop Solution to each well • 6) Measure the Coumarin (Ex. 400 nm, Em. 445 nm) and Fluorescein (Ex. 400 nm, Em. 520 nm) emission signals on an Envision plate reader (PerkinElmer)

THP-1 cells = test: THP-1 cell assay: LPS-stimulated pSer78-Hsp27 ELISA; format: cell-based; conditions: Homo sapiens, PMA-differentiated THP-1 cells, compound 60 min before 20 ng/mL LPS for 30 min
Description: Materials and Reagents for Measuring Activity in THP-1 Cells: • 1) THP-1 cells (Cell bank of Shanghai) • 2) PMA (Sigma, Cat.No. P1585) • 3) LPS (Sigma, Cat.No. L4516) • 4) 96-well tissue-culture treated plate (Grenier, Cat.No. 655180) • 5) FBS (Thermofisher, Cat.No. 10100147) • 6) Complete EDTA-free protease inhibitor Cocktail (Roche, Cat.No. 4693132001) • 7) PhosSTOP (Roche, Cat.No. 4906845001) • 8) Phosphor-Hsp27 (Ser78) Sandwich Elisa kit (CST, Cat.No. 7295)
Cell Assay Procedure: • 1) Day 0: THP-1 cells are seeded at 50K/well in complete media (1640+10% FBS+50 μM β-ME)+20 ng/mL PMA in 96-well plate • 2) Day 1: PMA containing media is removed after 24 h incubation (37° C./5% CO2), and replaced with complete growth media. Cells are incubated an additional 48 h to recover. • 3) Day 3: Cells are incubated with or without compounds at indicated concentrations for 60 min, prior to addition of 20 ng/mL LPS. Cells are stimulated for 30 min with LPS, washed 1× with ice cold PBS, lysed on ice in Lysis buffer provided in ELISA kit with Roche protease & phosphatase inhibitors. Extracts are clarified by refrigerated centrifugation & stored at −80° C. until pHsp27/total Hsp27 ELISAs • 4) Day 3 or Day 4: Cell Signaling Technology ELISA is run for pSer78-Hsp27 on lysates diluted to approximately 2.5 μg/well. • 5) The absorbance at 450 nm was read in a SpectraMax plus plate reader (Molecular Devices). Data was processed using GraphPad prism 8.0.

T1 sequence (P49137 whole entry): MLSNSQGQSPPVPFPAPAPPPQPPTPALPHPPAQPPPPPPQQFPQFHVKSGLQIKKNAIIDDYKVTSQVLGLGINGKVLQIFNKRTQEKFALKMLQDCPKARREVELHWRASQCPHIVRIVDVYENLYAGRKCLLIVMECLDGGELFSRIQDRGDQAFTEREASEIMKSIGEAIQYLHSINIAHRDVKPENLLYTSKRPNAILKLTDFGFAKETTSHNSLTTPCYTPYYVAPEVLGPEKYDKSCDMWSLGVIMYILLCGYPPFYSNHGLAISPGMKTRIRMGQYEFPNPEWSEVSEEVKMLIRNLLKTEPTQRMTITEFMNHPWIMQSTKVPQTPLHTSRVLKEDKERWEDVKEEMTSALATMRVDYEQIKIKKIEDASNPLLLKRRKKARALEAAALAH

Row | IC50 [1] [nM] | IC50 (THP-1 cells) [nM] | SMILES
1 | < 50 | 200 to 300 | CN1CC2(CC(=O)N(c3ccc4c(c3)Cn3cc(-c5ccc(C#N)cc5)cc3-c3nccn3-4)C2)C1 [Example 23, 4-(7-(2-Methyl-7-oxo-2,6-diazaspiro[3.4]octan-6-yl)-9H-benzo[e]imidazo [2,1-c]pyrrolo[1,2-a][1,4]diazepin-12-yl)benzonitrile]
2 | < 50 | < 50 | CN1CC2(CCN(c3ccc4c(c3)Cn3cc(-c5ccc(C#N)cc5)cc3-c3nccn3-4)C2=O)C1 [Example 24, 4-(7-(2-Methyl-5-oxo-2,6-diazaspiro[3.4]octan-6-yl)-911-benzo[e]imidazo [2,1-c]pyrrolo[1,2-a][1,4]diazepin-12-yl)benzonitrile]
3 | 50 to 100 | 300 to 400 | CN(C)[C@H]1CCN(c2ccc3c(c2)Cn2cc(-c4ccc(C#N)cc4)cc2-c2nccn2-3)C1=O [Example 25, (S)-4-(7-(3-(Dimethylamino)-2-oxopyrrolidin-1-yl)-9H-benzo[e]imidazo [2,1-c]pyrrolo[1,2-a][1,4]diazepin-12-yl)benzonitrile]
4 | 50 to 100 | 100 to 200 | N#Cc1ccc(-c2cc3n(c2)Cc2cc(N4C[C@@H](CN5CCC(F)C5)CC4=O)ccc2-n2ccnc2-3)cc1 (stereo partly drawn) [Example 26, 4-(7-((4R)-4-((3-Fluoropyrrolidin-1-yl)methyl)-2-oxopyrrolidin-1-yl)-9H-benzo[e]imidazo[2,1-c]pyrrolo[1,2-a][1,4]diazepin-12-yl)benzonitrile]
5 | < 50 | < 50 | N#Cc1ccc(-c2cc3n(c2)Cc2cc(N4C[C@@H](CN5CCC5)CC4=O)ccc2-n2ccnc2-3)cc1 [Example 27]
6 | < 50 | 500 to 1000 | N#Cc1ccc(-c2cc3n(c2)Cc2cc(N4C[C@@H](CN5CC(F)C5)CC4=O)ccc2-n2ccnc2-3)cc1 [Example 28]
7 | < 50 | 50 to 100 | N#Cc1ccc(-c2cc3n(c2)Cc2cc(N4C[C@@H](CN5CC(O)C5)CC4=O)ccc2-n2ccnc2-3)cc1 [Example 29]
8 | < 50 | 400 to 500 | CN(C)CC1(C)CC(=O)N(c2ccc3c(c2)Cn2cc(-c4ccc(C#N)cc4)cc2-c2nccn2-3)C1 (centres unmarked) [Example 33, 4-(7-(4-((Dimethylamino)methyl)-4-methyl-2-oxopyrrolidin-1-yl)-9H-benzo [e]imidazo[2,1-c]pyrrolo[1,2-a][1,4]diazepin-12-yl)benzonitrile]
9 | < 50 | < 50 | CN(C)CC1CCN(c2ccc3c(c2)Cn2cc(-c4ccc(C#N)cc4)cc2-c2nccn2-3)C1=O (centres unmarked) [Example 34, 4-(7-(3-((Dimethylamino)methyl)-2-oxopyrrolidin-1-yl)-9H-benzo[e]imidazo [2,1-c]pyrrolo[1,2-a][1,4]diazepin-12-yl)benzonitrile]
10 | 50 to 100 | 50 to 100 | CN(CCO)CC1CCN(c2ccc3c(c2)Cn2cc(-c4ccc(C#N)cc4)cc2-c2nccn2-3)C1=O (centres unmarked) [Example 37]
11 | < 50 | 300 to 400 | CC(C)(N)C[C@H]1CCN(c2ccc3c(c2)Cn2cc(-c4ccc(C#N)cc4)cc2-c2nccn2-3)C1=O [Example 43, (R)-4-(7-(3-(2-Amino-2-methylpropyl)-2-oxopyrrolidin-1-yl)-9H-benzo[e]imidazo[2,1-c]pyrrolo[1,2-a][1,4]diazepin-12-yl)benzonitrile]
12 | < 50 | 200 to 300 | CN(C)C[C@H]1[C@@H]2CN(c3ccc4c(c3)Cn3cc(-c5ccc(C#N)cc5)cc3-c3nccn3-4)C(=O)[C@H]12 [Example 46]
13 | < 50 | 100 to 200 | CN(C)CC1CC12CCN(c1ccc3c(c1)Cn1cc(-c4ccc(C#N)cc4)cc1-c1nccn1-3)C2=O (centres unmarked) [Example 47, 4-(7-(1-((Dimethylamino)methyl)-4-oxo-5-azaspiro[2.4]heptan-5-yl)-9H-benzo[e]imidazo[2,1-c]pyrrolo[1,2-a][1,4]diazepin-12-yl)benzonitrile]
